Laboratory results published in patent US10124065B2, “Lipids and lipid compositions for the delivery of active agents” (Novartis AG, priority 2013, dated 2018).

Tests used:
[1] = system: plasma Factor VII enzyme activity; assay: Mouse Factor VII dosing / Factor VII Activity Assay; assay type: in vivo; settings: percent knock down of plasma Factor VII activity, CD-1 mice, 48 h; for KD FVII 0.3 mg/kg: single IV dose 0.3 mg/kg, LNP Chol/DSPC/PEG-DMG 45/44/9/2
Summary of the method: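 Female CD-1 mice (~25 g) received a single IV tail-vein dose of lipid-nanoparticle-formulated Factor VII siRNA (0.3 or 0.03 mg/kg). Plasma taken ~48 h later; FVII activity measured chromogenically against vehicle-control plasma standard curve, reported as % knockdown.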

PLK-1 mRNA = assay: LS411N Xenograft Assay; assay type: in vivo, Nu/Nu mice; settings: percent knock down of PLK-1 mRNA vs control in LS411N tumors, IV 3 mg/kg daily for three days
Procedure: Female Nu/Nu mice (6-8 weeks old) were implanted subcutaneously with 5×10^6 LS411N cells. Tumor growth was monitored by caliper measurement before treatment initiation. Mice bearing 150-250 mm^3 subcutaneous tumors were randomized and enrolled in the study. The stock siRNA formulations were diluted to […] with PBS for dosing. Animals enrolled in different groups received a single daily bolus IV injection of 3 mg/kg siRNA for three days. Tumors were harvested 24 hours post last injection to assess target gene regulation by qRT-PCR.
Lipid nanoparticles comprising lipid compounds of formula (I) and the PLK1-424 siRNA duplex sequence listed above were tested in the LS411N Xenograft Assay. The results of this assay are given in Table 5 below as a percent knock down of PLK-1 mRNA as compared to the control when administered as a single daily dose for three days at a dose of 3 mg/kg.

human leptin = assay: Mouse intravenous tail vein injection of modified synthetic leptin mRNA, human leptin ELISA; assay type: in vivo, C57BL/6 mouse; settings: human leptin in mouse plasma, 10 μg leptin mRNA, 24 h
[2] = pKa measurement of cationic lipid (TNS fluorescence); assay type: physicochemical; settings: pKa of the cationic lipid of formula (I); Table 4; listed as Ex. 38
Procedure: Unless indicated otherwise, all pKa's referred to herein were measured at standard temperature and pressure. Also, unless otherwise indicated, all references to pKa are references to pKa measured using the following technique. 2 mM solution of lipid in ethanol was prepared by weighing the lipid and then dissolving it in ethanol. 0.3 mM solution of fluorescent probe TNS in ethanol:methanol 9:1 was prepared by first making 3 mM solution of TNS in methanol and then diluting to 0.3 mM with ethanol. An aqueous buffer containing 200 mM sodium phosphate dibasic and 100 mM citric acid was prepared. […] Using the Hamilton Microlab Star high throughput liquid handler and Hamilton run control software Software, 7.5 uL of probe/lipid mix were added to 242.5 uL of buffer in a 1 mL 96 well plate (model NUNC 260252, […] Nunc International). This was done with all twelve buffers. After mixing in 1 mL 96 well plate, 100 uL of each probe/lipid/buffer mixture was transferred to a 250 uL black with clear bottom 96 well plate (model COSTAR 3904, Corning). The fluorescence measurements are carried out on the SpectraMax M5 spectrophotometer using software SoftMax pro 5.2 and following parameters: After the measurement, the background fluorescence value of an empty well on the 96 well plate was subtracted from each probe/lipid/buffer mixture. The fluorescence intensity values were then normalized to the value at lowest pH. The normalized fluorescence intensity vs. pH chart was then plotted in the Microsoft Excel software. The twelve points were connected with a smooth line. The point on the line at which the normalized fluorescence intensity was equal to 0.5 was found. […] The pKa determined using this method is precise to about 0.1 pKa units.

CCCCC/C=C\C/C=C\CCCCCCCC(=O)OCCCCOc1cc(CN(C)C)cc(OCCCCOC(=O)CCCCCCC/C=C\C/C=C\CCCCC)c1 [Example 38, (9Z,9′Z,12Z,12′Z)-((5-((dimethylamino)methyl)-1,3-phenylene)bis(oxy))bis(butane-4,1-diyl)bis(octadeca-9,12-dienoate)]
KD FVII 0.03 mg/kg ([1]; single IV dose 0.03 mg/kg, LNP Chol/DSPC/S010 45/44/9/2): 43.6%
KD FVII 0.3 mg/kg [1]: 99%
LS411 KD 3 × 3 mg/Kg (PLK-1 mRNA; LNP Chol/DSPC/PEG-DSG 45/44/9/2): 58%
LS411 KD 3 × 3 mg/Kg (PLK-1 mRNA; LNP Chol/DSPC/S010 45/44/9/2): 60%
Leptin expression IV-C57BI/6, 24 h (human leptin): 17.21 ng/mL
pKa [2]: 5.9

CCCCCCCCCCOC(=O)CCCCCCCOc1cc(CN(C)C)cc(OCCCCCCCC(=O)OCCCCCCCCCC)c1 [Example 57, didecyl 8,8′-((5-((dimethylamino)methyl)-1,3-phenylene)bis(oxy))dioctanoate]
KD FVII 0.3 mg/kg [1]: 96.7%
LS411 KD 3 × 3 mg/Kg (PLK-1 mRNA; LNP Chol/DSPC/S010 45/44/9/2): 60%
Leptin expression IV-C57BI/6, 24 h (human leptin): 9.17 ng/mL
